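Exposure lasted 48 hours, with cells grown in 96-well plates and compounds tested at five concentrations. The concentration for 50% growth inhibition is given as GI50. Definition used: TGI = concentration required for complete inhibition of growth.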
Experiments:
Experiment in all cases: growth of human tumour cells (NCI), 48 h
SK-MEL-2 melanoma = test system: SK-MEL-2 melanoma
SNB-19 CNS = test system: SNB-19 CNS
MCF7 breast = test system: MCF7 breast
NCI/ADR-RES ovarian = test system: NCI/ADR-RES ovarian
NCI-H522 lung = test system: NCI-H522 lung
HCC-2998 colon = test system: HCC-2998 colon
HOP-62 NSCLC = test system: HOP-62 NSCLC
M14 melanoma = test system: M14 melanoma
HCT-116 colon = test system: HCT-116 colon
UACC-257 melanoma = test system: UACC-257 melanoma
HT29 colon = test system: HT29 colon
RXF 393 renal = test system: RXF 393 renal
CCRF-CEM leukemia = test system: CCRF-CEM leukemia
TK-10 renal = test system: TK-10 renal
PC-3 prostate = test system: PC-3 prostate
NCI-H460 lung = test system: NCI-H460 lung
OVCAR-5 ovarian = test system: OVCAR-5 ovarian
HL-60(TB) leukemia = test system: HL-60(TB) leukemia
SF-539 CNS = test system: SF-539 CNS
IGROV1 ovarian = test system: IGROV1 ovarian
KM12 colon = test system: KM12 colon
U251 CNS = test system: U251 CNS
T-47D breast = test system: T-47D breast
786-0 renal = test system: 786-0 renal
OVCAR-3 ovarian = test system: OVCAR-3 ovarian
SR leukemia = test system: SR leukemia
LOX IMVI melanoma = test system: LOX IMVI melanoma
UO-31 renal = test system: UO-31 renal
HCT-15 colon = test system: HCT-15 colon
OVCAR-8 ovarian = test system: OVCAR-8 ovarian
SK-MEL-28 melanoma = test system: SK-MEL-28 melanoma
RPMI-8226 leukemia = test system: RPMI-8226 leukemia
CAKI-1 renal = test system: CAKI-1 renal
OVCAR-4 ovarian = test system: OVCAR-4 ovarian
NCI-H23 lung = test system: NCI-H23 lung
UACC-62 melanoma = test system: UACC-62 melanoma
SK-OV-3 ovarian = test system: SK-OV-3 ovarian
HOP-92 NSCLC = test system: HOP-92 NSCLC
K-562 leukemia = test system: K-562 leukemia
NCI-H226 lung = test system: NCI-H226 lung
DU-145 prostate = test system: DU-145 prostate
SW-620 colon = test system: SW-620 colon
SF-268 CNS = test system: SF-268 CNS
SNB-75 CNS = test system: SNB-75 CNS
HS 578T breast = test system: HS 578T breast
SF-295 CNS = test system: SF-295 CNS
BT-549 breast = test system: BT-549 breast
A498 renal = test system: A498 renal
MDA-MB-231 breast = test system: MDA-MB-231 breast
EKVX NSCLC = test system: EKVX NSCLC
COLO 205 colon = test system: COLO 205 colon
SK-MEL-5 melanoma = test system: SK-MEL-5 melanoma
SN12C renal = test system: SN12C renal
A549 NSCLC = test system: A549 NSCLC
MALME-3M melanoma = test system: MALME-3M melanoma
MDA-MB-435 = test system: MDA-MB-435

O=C1C2=C(C(=O)c3cnccc31)C1C=CC2CC1 (centres undefined)
GI50 (SK-MEL-2 melanoma): 1.89 µM | TGI (SK-MEL-2 melanoma): 3.52 µM | GI50 (SNB-19 CNS): 5.03 µM | TGI (SNB-19 CNS): 9.41 µM | GI50 (MCF7 breast): 1.81 µM | TGI (MCF7 breast): 3.74 µM | GI50 (NCI/ADR-RES ovarian): 1.51 µM | TGI (NCI/ADR-RES ovarian): 3.5 µM | GI50 (NCI-H522 lung): 1.96 µM | TGI (NCI-H522 lung): 4.1 µM | GI50 (HCC-2998 colon): 8.74 µM | TGI (HCC-2998 colon): 21.2 µM | GI50 (HOP-62 NSCLC): 2.91 µM | TGI (HOP-62 NSCLC): 6.6 µM | GI50 (M14 melanoma): 1.94 µM | TGI (M14 melanoma): 3.41 µM | GI50 (HCT-116 colon): 1.65 µM | TGI (HCT-116 colon): 3.03 µM | GI50 (UACC-257 melanoma): 1.72 µM | TGI (UACC-257 melanoma): 3.17 µM | GI50 (HT29 colon): 2.58 µM | TGI (HT29 colon): 5.7 µM | GI50 (RXF 393 renal): 1.51 µM | TGI (RXF 393 renal): 2.85 µM | GI50 (CCRF-CEM leukemia): 0.66 µM | GI50 (TK-10 renal): 5.54 µM | TGI (TK-10 renal): 10.4 µM | GI50 (PC-3 prostate): 2.15 µM | GI50 (NCI-H460 lung): 8.48 µM | TGI (NCI-H460 lung): 21.7 µM | GI50 (OVCAR-5 ovarian): 1.93 µM | TGI (OVCAR-5 ovarian): 3.71 µM | GI50 (HL-60(TB) leukemia): 1.25 µM | TGI (HL-60(TB) leukemia): 4.63 µM | GI50 (SF-539 CNS): 2.27 µM | TGI (SF-539 CNS): 4.5 µM | GI50 (IGROV1 ovarian): 2.2 µM | TGI (IGROV1 ovarian): 4.31 µM | GI50 (KM12 colon): 2.65 µM | TGI (KM12 colon): 6.66 µM | GI50 (U251 CNS): 1.76 µM | TGI (U251 CNS): 3.19 µM | GI50 (T-47D breast): 0.374 µM | TGI (T-47D breast): 1.5 µM | GI50 (786-0 renal): 1.95 µM | TGI (786-0 renal): 3.37 µM | GI50 (OVCAR-3 ovarian): 1.85 µM | TGI (OVCAR-3 ovarian): 3.66 µM | GI50 (SR leukemia): 3.22 µM | TGI (SR leukemia): > 21.2 µM | GI50 (LOX IMVI melanoma): 0.773 µM | TGI (LOX IMVI melanoma): 2.19 µM | GI50 (UO-31 renal): 1.95 µM | TGI (UO-31 renal): 3.69 µM | GI50 (HCT-15 colon): 2.28 µM | TGI (HCT-15 colon): 4.94 µM | GI50 (OVCAR-8 ovarian): 0.715 µM | TGI (OVCAR-8 ovarian): 2.09 µM | GI50 (SK-MEL-28 melanoma): 2.02 µM | TGI (SK-MEL-28 melanoma): 3.69 µM | GI50 (RPMI-8226 leukemia): 2.28 µM | TGI (RPMI-8226 leukemia): 5.59 µM | GI50 (CAKI-1 renal): 3.57 µM | TGI (CAKI-1 renal): 9.33 µM | GI50 (OVCAR-4 ovarian): 0.316 µM | TGI (OVCAR-4 ovarian): 1.15 µM | GI50 (NCI-H23 lung): 1.82 µM | TGI (NCI-H23 lung): 4.02 µM | GI50 (UACC-62 melanoma): 1.92 µM | TGI (UACC-62 melanoma): 3.4 µM | GI50 (SK-OV-3 ovarian): 5.58 µM | TGI (SK-OV-3 ovarian): 10.4 µM | GI50 (HOP-92 NSCLC): 2.62 µM | TGI (HOP-92 NSCLC): 8.8 µM | GI50 (K-562 leukemia): 1.64 µM | GI50 (NCI-H226 lung): 5.74 µM | TGI (NCI-H226 lung): 16.2 µM | GI50 (DU-145 prostate): 1.8 µM | TGI (DU-145 prostate): 3.24 µM | GI50 (SW-620 colon): 1.85 µM | TGI (SW-620 colon): 3.44 µM | GI50 (SF-268 CNS): 1.9 µM | TGI (SF-268 CNS): 3.84 µM | GI50 (SNB-75 CNS): 1.34 µM | TGI (SNB-75 CNS): 2.73 µM | GI50 (HS 578T breast): 2.77 µM | TGI (HS 578T breast): 6.6 µM | GI50 (SF-295 CNS): 5.36 µM | TGI (SF-295 CNS): 12.4 µM | GI50 (BT-549 breast): 5.86 µM | TGI (BT-549 breast): 10.3 µM | GI50 (A498 renal): 16.1 µM | TGI (A498 renal): 29.7 µM | GI50 (MDA-MB-231 breast): 2.45 µM | TGI (MDA-MB-231 breast): 7.61 µM | GI50 (EKVX NSCLC): 1.92 µM | TGI (EKVX NSCLC): 4.13 µM | GI50 (COLO 205 colon): 2.32 µM | TGI (COLO 205 colon): 4.62 µM | GI50 (SK-MEL-5 melanoma): 1.84 µM | TGI (SK-MEL-5 melanoma): 3.85 µM | GI50 (SN12C renal): 1.69 µM | TGI (SN12C renal): 3.1 µM | GI50 (A549 NSCLC): 3.67 µM | TGI (A549 NSCLC): 8.73 µM | GI50 (MALME-3M melanoma): 2.12 µM | TGI (MALME-3M melanoma): 4.45 µM | GI50 (MDA-MB-435): 1.8 µM | TGI (MDA-MB-435): 3.55 µM
